How the values were obtained:
Assay in all cases: relative viability (nuclei count vs DMSO), 5 days (fraction); higher = more cells survive
Ibrutinib + Olaparib = compound: C=CC(=O)N1CCC[C@@H](n2nc(-c3ccc(Oc4ccccc4)cc3)c3c(N)ncnc32)C1 [Ibrutinib] + O=C(c1cc(Cc2n[nH]c(=O)c3ccccc23)ccc1F)N1CCN(C(=O)C2CC2)CC1 [Olaparib] (partner 8 µM)
Outline: (§1)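 For relative viability, nuclei counts in treated wells were divided by those in vehicle wells. Lung cancer cell lines had been pin-tool dosed in 1536-well plates the day after seeding and cultured for 5 days, then fixed and stained in one step (final 0.05% Triton X-100, 1% formaldehyde, 1 ug/ml Hoechst) and imaged at 4×. Doses were one drug alone or a fixed anchor-drug dose plus five library-drug doses (not always all listed) in √10 steps, and values are duplicate-plate medians.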

BMX-IN-1 + Pictilisib = compound: C=CC(=O)Nc1cc(-n2c(=O)ccc3cnc4ccc(-c5ccc(NS(C)(=O)=O)cc5)cc4c32)ccc1C [BMX-IN-1] + CS(=O)(=O)N1CCN(Cc2cc3nc(-c4cccc5[nH]ncc45)nc(N4CCOCC4)c3s2)CC1 [Pictilisib] (partner 1 µM)
Outline: as §1

BMX-IN-1 + Pemetrexed = compound: C=CC(=O)Nc1cc(-n2c(=O)ccc3cnc4ccc(-c5ccc(NS(C)(=O)=O)cc5)cc4c32)ccc1C [BMX-IN-1] + Nc1nc2[nH]cc(CCc3ccc(C(=O)N[C@@H](CCC(=O)O)C(=O)O)cc3)c2c(=O)[nH]1 [Pemetrexed] (partner 0.2 µM)
Outline: as §1

PAC-1 + Trametinib = compound: C=CCc1cccc(/C=N/NC(=O)CN2CCN(Cc3ccccc3)CC2)c1O [PAC-1] + CC(=O)Nc1cccc(-n2c(=O)n(C3CC3)c(=O)c3c(Nc4ccc(I)cc4F)n(C)c(=O)c(C)c32)c1 [Trametinib] (partner 0.02 µM)
Outline: as §1

201T
relative viability (Ibrutinib + Olaparib; first compound 0.005 µM): 0.844 | relative viability (Ibrutinib + Olaparib; first compound 0.01581 µM): 0.848 | relative viability (Ibrutinib + Olaparib; first compound 0.05 µM): 0.841 | relative viability (Ibrutinib + Olaparib; first compound 0.1581 µM): 0.816 | relative viability (Ibrutinib + Olaparib; first compound 0.5 µM): 0.793 | relative viability (BMX-IN-1 + Pictilisib; first compound 0.02 µM): 0.752 | relative viability (BMX-IN-1 + Pictilisib; first compound 0.2 µM): 0.72 | relative viability (BMX-IN-1 + Pictilisib; first compound 0.6325 µM): 0.71 | relative viability (BMX-IN-1 + Pictilisib; first compound 2 µM): 0.695 | relative viability (BMX-IN-1 + Pemetrexed; first compound 0.02 µM): 0.326 | relative viability (BMX-IN-1 + Pemetrexed; first compound 0.2 µM): 0.342 | relative viability (BMX-IN-1 + Pemetrexed; first compound 0.6325 µM): 0.339 | relative viability (BMX-IN-1 + Pemetrexed; first compound 2 µM): 0.351 | relative viability (PAC-1 + Trametinib; first compound 0.02 µM): 0.732 | relative viability (PAC-1 + Trametinib; first compound 0.06325 µM): 0.717 | relative viability (PAC-1 + Trametinib; first compound 0.2 µM): 0.687 | relative viability (PAC-1 + Trametinib; first compound 2 µM): 0.717

A549
relative viability (Ibrutinib + Olaparib; first compound 0.01581 µM): 0.35 | relative viability (Ibrutinib + Olaparib; first compound 0.05 µM): 0.279 | relative viability (Ibrutinib + Olaparib; first compound 0.1581 µM): 0.326 | relative viability (Ibrutinib + Olaparib; first compound 0.5 µM): 0.21 | relative viability (BMX-IN-1 + Pictilisib; first compound 0.02 µM): 0.69 | relative viability (BMX-IN-1 + Pictilisib; first compound 0.2 µM): 0.757 | relative viability (BMX-IN-1 + Pictilisib; first compound 0.6325 µM): 0.56 | relative viability (BMX-IN-1 + Pictilisib; first compound 2 µM): 0.517

A-427
relative viability (Ibrutinib + Olaparib; first compound 0.005 µM): 0.71 | relative viability (Ibrutinib + Olaparib; first compound 0.01581 µM): 0.722 | relative viability (Ibrutinib + Olaparib; first compound 0.05 µM): 0.723 | relative viability (Ibrutinib + Olaparib; first compound 0.5 µM): 0.766 | relative viability (BMX-IN-1 + Pictilisib; first compound 0.02 µM): 0.796 | relative viability (BMX-IN-1 + Pictilisib; first compound 0.2 µM): 0.83 | relative viability (BMX-IN-1 + Pictilisib; first compound 0.6325 µM): 0.948 | relative viability (BMX-IN-1 + Pictilisib; first compound 2 µM): 0.78 | relative viability (BMX-IN-1 + Pemetrexed; first compound 0.02 µM): 1.01 | relative viability (BMX-IN-1 + Pemetrexed; first compound 0.2 µM): 1.05 | relative viability (BMX-IN-1 + Pemetrexed; first compound 0.6325 µM): 1.11 | relative viability (BMX-IN-1 + Pemetrexed; first compound 2 µM): 0.992 | relative viability (PAC-1 + Trametinib; first compound 0.02 µM): 0.767 | relative viability (PAC-1 + Trametinib; first compound 0.06325 µM): 0.778 | relative viability (PAC-1 + Trametinib; first compound 0.2 µM): 0.817 | relative viability (PAC-1 + Trametinib; first compound 2 µM): 0.796

ABC-1
relative viability (Ibrutinib + Olaparib; first compound 0.005 µM): 0.85 | relative viability (Ibrutinib + Olaparib; first compound 0.01581 µM): 0.774 | relative viability (Ibrutinib + Olaparib; first compound 0.5 µM): 0.844 | relative viability (BMX-IN-1 + Pictilisib; first compound 0.02 µM): 0.802 | relative viability (BMX-IN-1 + Pictilisib; first compound 0.2 µM): 0.75 | relative viability (BMX-IN-1 + Pictilisib; first compound 0.6325 µM): 0.847 | relative viability (BMX-IN-1 + Pictilisib; first compound 2 µM): 0.394

BEN
relative viability (Ibrutinib + Olaparib; first compound 0.005 µM): 0.984 | relative viability (Ibrutinib + Olaparib; first compound 0.01581 µM): 1.11 | relative viability (Ibrutinib + Olaparib; first compound 0.05 µM): 1.09 | relative viability (Ibrutinib + Olaparib; first compound 0.1581 µM): 1.11 | relative viability (Ibrutinib + Olaparib; first compound 0.5 µM): 1.2 | relative viability (BMX-IN-1 + Pictilisib; first compound 0.02 µM): 0.643 | relative viability (BMX-IN-1 + Pictilisib; first compound 0.2 µM): 0.741 | relative viability (BMX-IN-1 + Pictilisib; first compound 0.6325 µM): 0.513 | relative viability (BMX-IN-1 + Pictilisib; first compound 2 µM): 0.596 | relative viability (BMX-IN-1 + Pemetrexed; first compound 0.02 µM): 0.701 | relative viability (BMX-IN-1 + Pemetrexed; first compound 0.2 µM): 0.768 | relative viability (BMX-IN-1 + Pemetrexed; first compound 0.6325 µM): 0.866 | relative viability (BMX-IN-1 + Pemetrexed; first compound 2 µM): 0.708 | relative viability (PAC-1 + Trametinib; first compound 0.02 µM): 1.08 | relative viability (PAC-1 + Trametinib; first compound 0.06325 µM): 1.09 | relative viability (PAC-1 + Trametinib; first compound 0.2 µM): 1.17 | relative viability (PAC-1 + Trametinib; first compound 2 µM): 0.923

CAL-12T
relative viability (Ibrutinib + Olaparib; first compound 0.005 µM): 0.665 | relative viability (Ibrutinib + Olaparib; first compound 0.01581 µM): 0.677 | relative viability (Ibrutinib + Olaparib; first compound 0.05 µM): 0.658 | relative viability (Ibrutinib + Olaparib; first compound 0.1581 µM): 0.818 | relative viability (Ibrutinib + Olaparib; first compound 0.5 µM): 0.506 | relative viability (BMX-IN-1 + Pictilisib; first compound 0.02 µM): 0.527 | relative viability (BMX-IN-1 + Pictilisib; first compound 0.2 µM): 0.425 | relative viability (BMX-IN-1 + Pictilisib; first compound 0.6325 µM): 0.47 | relative viability (BMX-IN-1 + Pictilisib; first compound 2 µM): 0.422 | relative viability (BMX-IN-1 + Pemetrexed; first compound 0.02 µM): 1.27 | relative viability (BMX-IN-1 + Pemetrexed; first compound 0.2 µM): 1.36 | relative viability (BMX-IN-1 + Pemetrexed; first compound 0.6325 µM): 1.37 | relative viability (BMX-IN-1 + Pemetrexed; first compound 2 µM): 1.15 | relative viability (PAC-1 + Trametinib; first compound 0.02 µM): 0.329 | relative viability (PAC-1 + Trametinib; first compound 0.06325 µM): 0.359 | relative viability (PAC-1 + Trametinib; first compound 0.2 µM): 0.353 | relative viability (PAC-1 + Trametinib; first compound 2 µM): 0.386

COR-L23
relative viability (Ibrutinib + Olaparib; first compound 0.005 µM): 0.398 | relative viability (Ibrutinib + Olaparib; first compound 0.01581 µM): 0.31 | relative viability (Ibrutinib + Olaparib; first compound 0.05 µM): 0.363 | relative viability (Ibrutinib + Olaparib; first compound 0.1581 µM): 0.385 | relative viability (Ibrutinib + Olaparib; first compound 0.5 µM): 0.327 | relative viability (BMX-IN-1 + Pictilisib; first compound 0.02 µM): 1.1 | relative viability (BMX-IN-1 + Pictilisib; first compound 0.2 µM): 1.3 | relative viability (BMX-IN-1 + Pictilisib; first compound 0.6325 µM): 0.76 | relative viability (BMX-IN-1 + Pictilisib; first compound 2 µM): 0.855 | relative viability (BMX-IN-1 + Pemetrexed; first compound 0.02 µM): 0.188 | relative viability (BMX-IN-1 + Pemetrexed; first compound 0.2 µM): 0.204 | relative viability (BMX-IN-1 + Pemetrexed; first compound 0.6325 µM): 0.206 | relative viability (BMX-IN-1 + Pemetrexed; first compound 2 µM): 0.165 | relative viability (PAC-1 + Trametinib; first compound 0.02 µM): 0.586 | relative viability (PAC-1 + Trametinib; first compound 0.06325 µM): 0.66 | relative viability (PAC-1 + Trametinib; first compound 2 µM): 0.673

COR-L 105
relative viability (Ibrutinib + Olaparib; first compound 0.005 µM): 0.663 | relative viability (Ibrutinib + Olaparib; first compound 0.01581 µM): 0.683 | relative viability (Ibrutinib + Olaparib; first compound 0.05 µM): 0.717 | relative viability (Ibrutinib + Olaparib; first compound 0.1581 µM): 0.755 | relative viability (Ibrutinib + Olaparib; first compound 0.5 µM): 0.46 | relative viability (BMX-IN-1 + Pictilisib; first compound 0.02 µM): 0.383 | relative viability (BMX-IN-1 + Pictilisib; first compound 0.2 µM): 0.4 | relative viability (BMX-IN-1 + Pictilisib; first compound 0.6325 µM): 0.481 | relative viability (BMX-IN-1 + Pictilisib; first compound 2 µM): 0.4 | relative viability (BMX-IN-1 + Pemetrexed; first compound 0.02 µM): 1.2 | relative viability (BMX-IN-1 + Pemetrexed; first compound 0.2 µM): 1.07 | relative viability (BMX-IN-1 + Pemetrexed; first compound 0.6325 µM): 1.3 | relative viability (BMX-IN-1 + Pemetrexed; first compound 2 µM): 1.04 | relative viability (PAC-1 + Trametinib; first compound 0.02 µM): 0.436 | relative viability (PAC-1 + Trametinib; first compound 0.06325 µM): 0.453 | relative viability (PAC-1 + Trametinib; first compound 0.2 µM): 0.47 | relative viability (PAC-1 + Trametinib; first compound 2 µM): 0.355

Calu-6
relative viability (Ibrutinib + Olaparib; first compound 0.005 µM): 0.673 | relative viability (Ibrutinib + Olaparib; first compound 0.01581 µM): 0.582 | relative viability (Ibrutinib + Olaparib; first compound 0.05 µM): 0.576 | relative viability (Ibrutinib + Olaparib; first compound 0.1581 µM): 0.599 | relative viability (Ibrutinib + Olaparib; first compound 0.5 µM): 0.589 | relative viability (BMX-IN-1 + Pictilisib; first compound 0.02 µM): 1.14 | relative viability (BMX-IN-1 + Pictilisib; first compound 0.2 µM): 1.21 | relative viability (BMX-IN-1 + Pictilisib; first compound 0.6325 µM): 1.09 | relative viability (BMX-IN-1 + Pictilisib; first compound 2 µM): 0.866

ChaGo-K-1
relative viability (Ibrutinib + Olaparib; first compound 0.005 µM): 0.445 | relative viability (Ibrutinib + Olaparib; first compound 0.01581 µM): 0.421 | relative viability (Ibrutinib + Olaparib; first compound 0.05 µM): 0.424 | relative viability (Ibrutinib + Olaparib; first compound 0.1581 µM): 0.436 | relative viability (Ibrutinib + Olaparib; first compound 0.5 µM): 0.426 | relative viability (BMX-IN-1 + Pictilisib; first compound 0.02 µM): 0.66 | relative viability (BMX-IN-1 + Pictilisib; first compound 0.2 µM): 0.64 | relative viability (BMX-IN-1 + Pictilisib; first compound 0.6325 µM): 0.858 | relative viability (BMX-IN-1 + Pictilisib; first compound 2 µM): 0.614 | relative viability (BMX-IN-1 + Pemetrexed; first compound 0.02 µM): 0.238 | relative viability (BMX-IN-1 + Pemetrexed; first compound 0.2 µM): 0.305 | relative viability (BMX-IN-1 + Pemetrexed; first compound 0.6325 µM): 0.25 | relative viability (BMX-IN-1 + Pemetrexed; first compound 2 µM): 0.39 | relative viability (PAC-1 + Trametinib; first compound 0.02 µM): 0.951 | relative viability (PAC-1 + Trametinib; first compound 0.06325 µM): 0.917 | relative viability (PAC-1 + Trametinib; first compound 0.2 µM): 0.837 | relative viability (PAC-1 + Trametinib; first compound 2 µM): 0.94

EBC-1
relative viability (Ibrutinib + Olaparib; first compound 0.005 µM): 0.718 | relative viability (Ibrutinib + Olaparib; first compound 0.01581 µM): 0.645 | relative viability (Ibrutinib + Olaparib; first compound 0.05 µM): 0.606 | relative viability (Ibrutinib + Olaparib; first compound 0.1581 µM): 0.737 | relative viability (Ibrutinib + Olaparib; first compound 0.5 µM): 0.797 | relative viability (BMX-IN-1 + Pictilisib; first compound 0.02 µM): 0.249 | relative viability (BMX-IN-1 + Pictilisib; first compound 0.2 µM): 0.303 | relative viability (BMX-IN-1 + Pictilisib; first compound 0.6325 µM): 0.382 | relative viability (BMX-IN-1 + Pictilisib; first compound 2 µM): 0.255

Source: the supplement of paper PMC10307832
